Drawing on article doi:10.1101/2025.08.21.671483v1, “In vitro and in vivo activity profiles of broad-spectrum bacterial ATP synthase inhibitors” (biorxiv, 2025), this text covers MIC, IC50 and Ki for three compounds.

One assay has as its system T1, E. coli ATCC 25922.
T1 construct: ATCC 25922
In words: microbe, parasite or virus in culture. Details: species or system bacteria; CLSI broth microdilution MIC, no visible growth. Particulars: Escherichia coli.

The subject of assay [1] is T2, S. aureus ATCC 29740 (Newbould).
T2 construct: ATCC 29740 (Newbould)
In words: microbe, parasite or virus in culture. On the set-up: species or system bacteria; CLSI broth microdilution MIC, no visible growth. The settings on record: Staphylococcus aureus.

In another assay the test system is T3, E. coli MC4100 acrAB.
T3 construct: MC4100 acrAB efflux-deficient
In words: microbe, parasite or virus in culture. The settings on record: Escherichia coli, MC4100ACRAB, read-out: MIC.

In another assay the test system is T4, E. coli MC4100 WT.
T4 construct: MC4100 (ATCC 35695)
Description: microbe, parasite or virus in culture. Details: species or system bacteria; CLSI broth microdilution MIC, no visible growth. Particulars: Escherichia coli, MC4100WT.

The next assay concerns S. aureus ATCC 29740hemB. In words: microbe, parasite or virus in culture. Particulars: Staphylococcus aureus, ATCC29740HEMB, read-out: MIC.
The target in the next assay is T5, S. aureus ATP synthase (Staphylococcus aureus, UniProt Q99SF0).
T5 construct: gene atpE
Description: ATP production by membrane vesicles, luciferase luminescence. In kind it is biochemical. Particulars: […] NADH, 1 mM ADP, 10 mM potassium phosphate; 30 min preincubation, 60 min reaction. An excerpt: ATP production by membrane vesicles, luciferase luminescence on S. aureus ATP synthase

In assay [2] the target is T6, E. coli ATP synthase (Escherichia coli, UniProt P68699).
T6 construct: gene atpE
Described as above. In kind it is biochemical. Particulars: […] NADH, 1 mM ADP, 10 mM potassium phosphate; 30 min preincubation, 60 min reaction. An excerpt:
ATP production by membrane vesicles, luciferase luminescence on E. coli ATP synthase

The test system of the next assay is T7, E. coli MC4100 lptD4213.
T7 construct: MC4100 lptD4213 membrane-compromised
In words: microbe, parasite or virus in culture. The settings on record: Escherichia coli, MC4100LPTD4213, read-out: MIC.

For a further assay, the system named is T8, Escherichia coli ec302.
T8 construct: ec302
In words: microbe, parasite or virus in culture. Details: species or system bacteria; CLSI broth microdilution MIC, no visible growth.

The test system of another assay is T9, Escherichia coli ec308.
T9 construct: ec308
Description: microbe, parasite or virus in culture. Details: species or system bacteria; CLSI broth microdilution MIC, no visible growth.

In assay [3] the test system is T10, Escherichia coli ATCC 35218.
T10 construct: ATCC 35218
Description: microbe, parasite or virus in culture. On the set-up: species or system bacteria; CLSI broth microdilution MIC, no visible growth.

The next assay concerns T11, Escherichia coli ec305.
T11 construct: ec305
Description: microbe, parasite or virus in culture. Details: species or system bacteria; CLSI broth microdilution MIC, no visible growth.

Assay [4] has as its system T12, Escherichia coli 70122 CW-2007.
T12 construct: 70122 CW-2007
Description: microbe, parasite or virus in culture. Details: species or system bacteria; CLSI broth microdilution MIC, no visible growth.

In assay [5] the test system is T13, Escherichia coli 95882 CW-2011.
T13 construct: 95882 CW-2011
In words: microbe, parasite or virus in culture. On the set-up: species or system bacteria; CLSI broth microdilution MIC, no visible growth.

Another assay concerns T14, Escherichia coli ec310.
T14 construct: ec310
Description: microbe, parasite or virus in culture. On the set-up: species or system bacteria; CLSI broth microdilution MIC, no visible growth.

The next assay concerns T15, Escherichia coli ec309.
T15 construct: ec309
In words: microbe, parasite or virus in culture. On the set-up: species or system bacteria; CLSI broth microdilution MIC, no visible growth.

Assay [6] has as its system T16, Escherichia coli ATCC BAA2471.
T16 construct: ATCC BAA-2471
Description: microbe, parasite or virus in culture. Details: species or system bacteria; CLSI broth microdilution MIC, no visible growth.

Assay [7] deals with T17, Escherichia coli ATCC 25922.
T17 construct: ATCC 25922
In words: microbe, parasite or virus in culture.

Assay [8] deals with T6, E. coli ATP synthase. Description: ATP synthesis kinetics, membrane vesicles, luciferase luminescence. In kind it is biochemical. Particulars: ADP varied 0.05-1 mM, NADH-driven, pre-exposure 0-10 min.
For assay [9], the system named is T18, Citrobacterfreundii ATCC 8090.
T18 construct: ATCC 8090
In words: organism not typed. On the set-up: species or system bacteria; CLSI broth microdilution MIC, no visible growth. The settings on record: read-out: Table 5 TM-184 MIC.

Like-named read-outs stand apart in the source and are kept apart here. A value given as a limit tells only on which side of the number the result lay.

In general, IC50 refers to the concentration that inhibits the measured activity by half. A lower IC50 goes with greater potency. In the case of `C[C@H]1CC[C@]2(NC1)O[C@H]1C[C@H]3[C@@H]4CC[C@H]5CC(NCCN)CC[C@]5(C)[C@H]4CC[C@]3(C)[C@H]1[C@@H]2C` (mixture of isomers) [TM-02], the MIC with E. coli ATCC 25922 (ATCC25922, read-out: TM-02 MIC) was 32 µg/mL; in assay [1] (ATCC29740, read-out: TM-02 MIC), 4 µg/mL; in the assay with E. coli MC4100 acrAB, 8 µg/mL; with E. coli MC4100 WT (read-out: TM-02 MIC), 16 µg/mL; in the assay with S. aureus ATCC 29740hemB it was not above 0.25 µg/mL; in the assay on E. coli MC4100 lptD4213, 0.5 µg/mL. Also, the MIC in the assay with Escherichia coli ec302 (EC302, read-out: Table 3 TM-02 MIC) stood at 32 µg/mL; in the assay with Escherichia coli ec308 (EC308, read-out: Table 3 TM-02 MIC), 8 µg/mL; in assay [3] (ATCC35218, read-out: Table 3 TM-02 MIC) it was 32 µg/mL; in the assay on Escherichia coli ec305 (EC305, read-out: Table 3 TM-02 MIC), 4 µg/mL; in [4] (70122CW2007, read-out: Table 3 TM-02 MIC) it was 16 µg/mL; in [5] (95882CW2011, read-out: Table 3 TM-02 MIC), 32 µg/mL. For the same compound, the MIC in the assay with Escherichia coli ec310 (EC310, read-out: Table 3 TM-02 MIC) was 32 µg/mL; in the assay on Escherichia coli ec309 (EC309, read-out: Table 3 TM-02 MIC), 32 µg/mL; in assay [6] (ATCCBAA2471, read-out: Table 3 TM-02 MIC), 32 µg/mL; in assay [7] (ATCC25922, read-out: MIC (ug/ml) first column) it was 32 µg/mL. Moreover, the IC50 at S. aureus ATP synthase came to 510 ± 170 nM; against E. coli ATP synthase [2], 1490 ± 280 nM.

On E. coli ATP synthase [8] (positive control, covalent), `O=[N+]([O-])c1ccc(Cl)c2nonc12` [4-chloro-7-nitrobenzofurazan, reference compound] registered a Ki of 1800 nM.

With `C[C@H]1CC[C@]2(NC1)O[C@H]1C[C@H]3[C@@H]4CC[C@H]5CC(NC[C@H](N)Cc6ccc(I)cc6)CC[C@]5(C)[C@H]4CC[C@]3(C)[C@H]1[C@@H]2C` (mixture of isomers) [TM-184], the MIC in the assay on E. coli ATCC 25922 (ATCC25922, read-out: TM-184 MIC) was 4 µg/mL; in assay [1] (ATCC29740, read-out: TM-184 MIC), 2 µg/mL; in the assay on E. coli MC4100 acrAB it was 4 µg/mL; with E. coli MC4100 WT (read-out: TM-184 MIC), 8 µg/mL; in assay [9], 8 µg/mL; in the assay on S. aureus ATCC 29740hemB, not above 0.25 µg/mL. Also, the MIC in the assay with E. coli MC4100 lptD4213 was found to be 2 µg/mL; with Escherichia coli ec302 (EC302, read-out: Table 3 TM-184 MIC), 16 µg/mL; with Escherichia coli ec308 (EC308, read-out: Table 3 TM-184 MIC), 4 µg/mL; in assay [3] (ATCC35218, read-out: Table 3 TM-184 MIC) it was 16 µg/mL; in the assay on Escherichia coli ec305 (EC305, read-out: Table 3 TM-184 MIC) it was 2 µg/mL; in assay [4] (70122CW2007, read-out: Table 3 TM-184 MIC), 16 µg/mL. The MIC in assay [5] (95882CW2011, read-out: Table 3 TM-184 MIC) is 16 µg/mL; in the assay with Escherichia coli ec310 (EC310, read-out: Table 3 TM-184 MIC), 16 µg/mL; in the assay with Escherichia coli ec309 (EC309, read-out: Table 3 TM-184 MIC), 16 µg/mL; in assay [6] (ATCCBAA2471, read-out: Table 3 TM-184 MIC), 16 µg/mL; in assay [7] (ATCC25922, read-out: MIC (ug/ml) second column) it was 4 µg/mL. In addition, the IC50 against S. aureus ATP synthase stood at 700 ± 330 nM; against E. coli ATP synthase [2], 1570 ± 170 nM. Also, the Ki at E. coli ATP synthase [8] is 800 to 1300 nM.
